Measured values from ChEMBL document CHEMBL3885861, “Open TG-GATES”.

Species: Rattus norvegicus
Test: Open TG-GATES - Regimen: Daily Repeat
Type: toxicity, organism-based, Sprague-Dawley
Set-up: regimen Daily Repeat, gender Male, age 6 weeks
Details: in vivo, po, route gavage; for Bas / Eos / Fbg / Ht / MCHC / Mono / Plat / RBC / Ret / WBC / MCV: tissue Blood; for KIDNEY_L / KIDNEY_R / KIDNEY_TOTAL: tissue Kidney; for ALT / AST / CRE / DBIL / GLC / IP / K / LDH / PL / RALB / TBIL / TC / TG / TP / gamma-GTP: tissue Plasma
[1] = 0 mg/kg, 72 h, dose level Control, time 3 day
[2] = 0 mg/kg, […], dose level Control, time 7 day
[3] = 0 mg/kg, […], dose level Control, time 14 day
[4] = 0 mg/kg, […], dose level Control, time 28 day
[5] = 10 mg/kg, 72 h, dose level Low, time 3 day
[6] = 10 mg/kg, […], dose level Low, time 7 day
[7] = 10 mg/kg, […], dose level Low, time 14 day
[8] = 10 mg/kg, […], dose level Low, time 28 day

CC(C)OC(=O)C(C)(C)Oc1ccc(C(=O)c2ccc(Cl)cc2)cc1 [FENOFIBRATE]
TERMINAL_BW [1]: 218.5 g
Bas [1]: 0.2%
Eos [1]: 1.2%
Fbg [1]: 275 mg/dL
Ht [1]: 39.9%
MCHC [1]: 33%
Mono [1]: 3.2%
Plat [1]: 108.4 x10_4/uL
RBC [1]: 625.4 x10_4/ul
Ret [1]: 7.7%
WBC [1]: 80.3 x10_2/uL
KIDNEY_L [1]: 1 g
KIDNEY_R [1]: 0.9 g
KIDNEY_TOTAL [1]: 1.9 g
ALT [1]: 44.4 IU/L
AST [1]: 69 IU/L
CRE [1]: 0.2 mg/dL
DBIL [1]: 0.014 mg/dL
GLC [1]: 180.4 mg/dL
IP [1]: 8.3 mg/dL
K [1]: 4.3 meq/L
LDH [1]: 75.2 IU/L
PL [1]: 150.2 mg/dL
RALB [1]: 2.6 g/dL
TBIL [1]: 0.042 mg/dL
TC [1]: 76.8 mg/dL
TG [1]: 86 mg/dL
TP [1]: 5.6 g/dL
gamma-GTP [1]: 1.2 IU/L
TERMINAL_BW [2]: 254.4 g
TERMINAL_BW [3]: 310.8 g
TERMINAL_BW [4]: 390.8 g
Bas [2]: 0%
Eos [2]: 1%
Fbg [2]: 310.4 mg/dL
Ht [2]: 41.5%
MCHC [2]: 32.7%
Mono [2]: 2.8%
Plat [2]: 113.6 x10_4/uL
RBC [2]: 650 x10_4/ul
Ret [2]: 6.1%
WBC [2]: 94.9 x10_2/uL
Bas [3]: 0%
Eos [3]: 1%
Fbg [3]: 309.8 mg/dL
Ht [3]: 43.2%
MCHC [3]: 33.2%
Mono [3]: 2.2%
Plat [3]: 111 x10_4/uL
RBC [3]: 692.6 x10_4/ul
Ret [3]: 4.5%
WBC [3]: 81.5 x10_2/uL
Bas [4]: 0.4%
Eos [4]: 1.2%
Fbg [4]: 270.6 mg/dL
Ht [4]: 45.9%
MCHC [4]: 33.9%
MCV [4]: 59.2 fL
Mono [4]: 2.2%
Plat [4]: 101.9 x10_4/uL
RBC [4]: 774.4 x10_4/ul
Ret [4]: 2.5%
WBC [4]: 107.1 x10_2/uL
KIDNEY_L [2]: 1.1 g
KIDNEY_R [2]: 1.1 g
KIDNEY_TOTAL [2]: 2.1 g
KIDNEY_L [3]: 1.2 g
KIDNEY_R [3]: 1.2 g
KIDNEY_TOTAL [3]: 2.4 g
KIDNEY_L [4]: 1.3 g
KIDNEY_R [4]: 1.3 g
KIDNEY_TOTAL [4]: 2.5 g
ALT [2]: 47.8 IU/L
AST [2]: 72.2 IU/L
CRE [2]: 0.2 mg/dL
DBIL [2]: 0.012 mg/dL
GLC [2]: 187.8 mg/dL
IP [2]: 7.9 mg/dL
K [2]: 4.3 meq/L
LDH [2]: 89.6 IU/L
PL [2]: 147.8 mg/dL
RALB [2]: 2.7 g/dL
TBIL [2]: 0.036 mg/dL
TC [2]: 72.2 mg/dL
TG [2]: 122.6 mg/dL
TP [2]: 5.8 g/dL
gamma-GTP [2]: 1 IU/L
ALT [3]: 40.8 IU/L
AST [3]: 65.8 IU/L
CRE [3]: 0.2 mg/dL
DBIL [3]: 0.014 mg/dL
GLC [3]: 188.2 mg/dL
IP [3]: 7.5 mg/dL
K [3]: 4.3 meq/L
LDH [3]: 106.6 IU/L
PL [3]: 144.8 mg/dL
RALB [3]: 2.7 g/dL
TBIL [3]: 0.038 mg/dL
TC [3]: 64.6 mg/dL
TG [3]: 188 mg/dL
TP [3]: 5.9 g/dL
gamma-GTP [3]: 1 IU/L
ALT [4]: 40.2 IU/L
AST [4]: 65.8 IU/L
CRE [4]: 0.2 mg/dL
DBIL [4]: 0.012 mg/dL
GLC [4]: 186 mg/dL
IP [4]: 7.1 mg/dL
K [4]: 3.6 meq/L
LDH [4]: 90 IU/L
PL [4]: 142 mg/dL
RALB [4]: 2.8 g/dL
TBIL [4]: 0.042 mg/dL
TC [4]: 71.4 mg/dL
TG [4]: 117.8 mg/dL
TP [4]: 6.3 g/dL
gamma-GTP [4]: 1.2 IU/L
TERMINAL_BW [5]: 221.1 g
Bas [5]: 0.4%
Eos [5]: 1.4%
Fbg [5]: 269.8 mg/dL
Ht [5]: 39.2%
MCHC [5]: 33.1%
Mono [5]: 3%
Plat [5]: 113.1 x10_4/uL
RBC [5]: 620.2 x10_4/ul
Ret [5]: 7.2%
WBC [5]: 80.5 x10_2/uL
KIDNEY_L [5]: 1 g
KIDNEY_R [5]: 1 g
KIDNEY_TOTAL [5]: 2 g
ALT [5]: 49 IU/L
AST [5]: 76.6 IU/L
CRE [5]: 0.2 mg/dL
DBIL [5]: 0.012 mg/dL
GLC [5]: 182.8 mg/dL
IP [5]: 8.3 mg/dL
K [5]: 4.1 meq/L
LDH [5]: 74 IU/L
PL [5]: 148.8 mg/dL
RALB [5]: 2.6 g/dL
TBIL [5]: 0.04 mg/dL
TC [5]: 80.4 mg/dL
TG [5]: 52.4 mg/dL
TP [5]: 5.6 g/dL
gamma-GTP [5]: 1.2 IU/L
TERMINAL_BW [6]: 253.9 g
TERMINAL_BW [7]: 314.5 g
TERMINAL_BW [8]: 385.8 g
Bas [6]: 0.2%
Eos [6]: 1%
Fbg [6]: 280.8 mg/dL
Ht [6]: 41%
MCHC [6]: 33.1%
Mono [6]: 2.2%
Plat [6]: 136.5 x10_4/uL
RBC [6]: 646.8 x10_4/ul
Ret [6]: 6.2%
WBC [6]: 99.8 x10_2/uL
Bas [7]: 0%
Eos [7]: 1%
Fbg [7]: 309.6 mg/dL
Ht [7]: 42.6%
MCHC [7]: 33.5%
Mono [7]: 3%
Plat [7]: 123.9 x10_4/uL
RBC [7]: 687.6 x10_4/ul
Ret [7]: 4.5%
WBC [7]: 88.4 x10_2/uL
Bas [8]: 0%
Eos [8]: 1.2%
Fbg [8]: 267 mg/dL
Ht [8]: 44.6%
MCHC [8]: 33.7%
MCV [8]: 57.9 fL
Mono [8]: 2.4%
Plat [8]: 105.5 x10_4/uL
RBC [8]: 770.4 x10_4/ul
Ret [8]: 2.1%
WBC [8]: 88.4 x10_2/uL
KIDNEY_L [6]: 1.1 g
KIDNEY_R [6]: 1.1 g
KIDNEY_TOTAL [6]: 2.1 g
KIDNEY_L [7]: 1.3 g
KIDNEY_R [7]: 1.3 g
KIDNEY_TOTAL [7]: 2.6 g
KIDNEY_L [8]: 1.5 g
KIDNEY_R [8]: 1.5 g
KIDNEY_TOTAL [8]: 2.9 g
ALT [6]: 45.2 IU/L
AST [6]: 72.8 IU/L
CRE [6]: 0.2 mg/dL
DBIL [6]: 0.01 mg/dL
GLC [6]: 187.2 mg/dL
IP [6]: 8.1 mg/dL
K [6]: 4.4 meq/L
LDH [6]: 101.2 IU/L
PL [6]: 131.8 mg/dL
RALB [6]: 2.7 g/dL
TBIL [6]: 0.026 mg/dL
TC [6]: 65.6 mg/dL
TG [6]: 74.2 mg/dL
TP [6]: 5.8 g/dL
gamma-GTP [6]: 1 IU/L
ALT [7]: 39.8 IU/L
AST [7]: 64 IU/L
CRE [7]: 0.2 mg/dL
DBIL [7]: 0.014 mg/dL
GLC [7]: 193.2 mg/dL
IP [7]: 7.7 mg/dL
K [7]: 4.3 meq/L
LDH [7]: 84 IU/L
PL [7]: 132.4 mg/dL
RALB [7]: 2.7 g/dL
TBIL [7]: 0.03 mg/dL
TC [7]: 57.2 mg/dL
TG [7]: 124.8 mg/dL
TP [7]: 6 g/dL
gamma-GTP [7]: 0.8 IU/L
ALT [8]: 40.2 IU/L
AST [8]: 63.2 IU/L
CRE [8]: 0.2 mg/dL
DBIL [8]: 0.01 mg/dL
GLC [8]: 187.6 mg/dL
IP [8]: 7.2 mg/dL
K [8]: 4.2 meq/L
LDH [8]: 101.6 IU/L
PL [8]: 136.2 mg/dL
RALB [8]: 2.8 g/dL
TBIL [8]: 0.028 mg/dL
TC [8]: 64.6 mg/dL
TG [8]: 100 mg/dL
TP [8]: 6.4 g/dL
gamma-GTP [8]: 1 IU/L
